Data set [1] is described as follows: Inhibition of baker's yeast alpha-glucosidase type-1 using p-nitrophenyl-alpha-D-glucopyranoside as substrate preincubated for 30 mins followed by substrate addition measured after 20 mins by microplate reader analysis. Also on record: species or system Saccharomyces cerevisiae.
In data set [2] the target is T1, Sucrase-isomaltase, intestinal (Rattus norvegicus, UniProt P23739). Briefly: Inhibition of rat intestinal Sucrase using sucrose as substrate assessed as glucose release after 40 mins by glucose oxidase method.
Data set [3] can be described thus: Antioxidant activity assessed as DPPH radical scavenging activity incubated for 30 mins in dark condition by spectrophotometric analysis. The format is physicochemical. The settings on record: 0.5 h.
The target in data set [4] is T1, Sucrase-isomaltase, intestinal. The experiment in a line: Competitive inhibition of rat intestinal Sucrase using sucrose as substrate assessed as glucose release after 40 mins by Lineweaver-Burk plot analysis.
Data set [5] has the same target. The experiment in a line: Non-competitive inhibition of rat intestinal Sucrase using sucrose as substrate assessed as glucose release after 40 mins by Lineweaver-Burk plot analysis.

T1 sequence (P23739 1-1013 limits assumed): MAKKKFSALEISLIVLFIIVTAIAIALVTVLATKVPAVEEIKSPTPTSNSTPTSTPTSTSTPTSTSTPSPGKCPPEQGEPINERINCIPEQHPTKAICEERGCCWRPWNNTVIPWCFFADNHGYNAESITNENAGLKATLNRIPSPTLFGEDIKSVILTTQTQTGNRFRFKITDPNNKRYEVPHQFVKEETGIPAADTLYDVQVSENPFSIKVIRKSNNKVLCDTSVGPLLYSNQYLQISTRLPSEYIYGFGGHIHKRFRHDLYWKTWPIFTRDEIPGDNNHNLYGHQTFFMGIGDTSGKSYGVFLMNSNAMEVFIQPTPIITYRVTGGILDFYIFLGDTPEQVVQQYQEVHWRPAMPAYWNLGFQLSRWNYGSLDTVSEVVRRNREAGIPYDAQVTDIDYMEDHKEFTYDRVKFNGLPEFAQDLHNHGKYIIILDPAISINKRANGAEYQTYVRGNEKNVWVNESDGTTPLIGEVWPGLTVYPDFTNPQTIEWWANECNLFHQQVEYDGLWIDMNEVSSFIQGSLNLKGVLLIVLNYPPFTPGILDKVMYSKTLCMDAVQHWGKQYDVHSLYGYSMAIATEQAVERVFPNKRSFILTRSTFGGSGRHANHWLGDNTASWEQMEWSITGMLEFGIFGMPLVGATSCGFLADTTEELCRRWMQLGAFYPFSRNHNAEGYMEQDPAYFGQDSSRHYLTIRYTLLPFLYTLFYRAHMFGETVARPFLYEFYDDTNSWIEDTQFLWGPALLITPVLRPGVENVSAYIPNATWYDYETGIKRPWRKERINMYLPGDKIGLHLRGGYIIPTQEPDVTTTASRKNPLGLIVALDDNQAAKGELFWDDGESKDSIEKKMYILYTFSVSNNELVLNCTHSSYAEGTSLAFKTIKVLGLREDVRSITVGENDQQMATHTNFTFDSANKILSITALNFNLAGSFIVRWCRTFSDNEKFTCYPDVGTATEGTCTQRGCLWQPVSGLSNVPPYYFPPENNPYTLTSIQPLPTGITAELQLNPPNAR
T1 sequence (P23739 1014-1841 limits assumed): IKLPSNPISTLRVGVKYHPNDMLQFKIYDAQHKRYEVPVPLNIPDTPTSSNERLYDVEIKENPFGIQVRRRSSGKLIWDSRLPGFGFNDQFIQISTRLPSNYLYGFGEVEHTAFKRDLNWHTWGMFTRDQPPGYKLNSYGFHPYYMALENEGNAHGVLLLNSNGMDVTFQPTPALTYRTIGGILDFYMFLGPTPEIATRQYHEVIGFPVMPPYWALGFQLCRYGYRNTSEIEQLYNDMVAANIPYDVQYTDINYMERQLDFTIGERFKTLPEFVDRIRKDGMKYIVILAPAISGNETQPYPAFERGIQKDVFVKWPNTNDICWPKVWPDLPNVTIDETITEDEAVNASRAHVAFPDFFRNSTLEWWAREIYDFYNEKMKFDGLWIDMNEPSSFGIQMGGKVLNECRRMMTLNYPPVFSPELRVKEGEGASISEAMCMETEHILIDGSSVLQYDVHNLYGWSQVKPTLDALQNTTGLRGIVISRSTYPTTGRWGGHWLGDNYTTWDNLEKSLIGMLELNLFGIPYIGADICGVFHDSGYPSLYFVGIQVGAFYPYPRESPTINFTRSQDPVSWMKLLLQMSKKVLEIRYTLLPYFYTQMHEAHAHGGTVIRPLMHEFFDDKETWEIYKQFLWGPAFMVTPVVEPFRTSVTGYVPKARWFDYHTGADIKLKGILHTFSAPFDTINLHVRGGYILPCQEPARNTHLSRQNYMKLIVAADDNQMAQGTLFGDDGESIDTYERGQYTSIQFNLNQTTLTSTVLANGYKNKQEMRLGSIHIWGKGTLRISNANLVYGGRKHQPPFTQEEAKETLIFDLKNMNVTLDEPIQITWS

The term IC50 denotes the concentration at which inhibition is half-maximal. By Ki is commonly meant a dissociation constant, usually derived from enzyme kinetics or from competition with a known ligand. For `O=C(CCCCCCC[C@H](O)c1ccccc1)c1c(O)cc(O)cc1O`, the IC50 was 22.6 µM in data set [1] (read-out: IC50) and 94.9 µM in data set [2] (read-out: IC50). Also, the SC50 in data set [3] stood at 1.6 mM. In addition, the Ki was 1090 µM in data set [4] and 540 µM in data set [5].
For `O=C(CCCCCCC[C@H](O)c1ccccc1)c1c(O)cc(O)c(C(CCc2ccccc2)c2ccc(O)cc2O)c1O` (stereo partly drawn) the same measures were 5.65 µM, 47.4 µM, 0.43 mM, 3070 µM and 380 µM.
Take `O=C1C[C@@H](c2ccccc2)Oc2c1c(O)cc(O)c2[C@@H]1O[C@H](CO)[C@@H](O)[C@H](O)[C@H]1O`: the IC50 in data set [1] (read-out: IC50) is 529 µM; in data set [2], “Not Active”. For the same molecule, the SC50 in data set [3] came out at 6.76 mM.
Take `C[C@H]1O[C@H](O[C@H]2[C@H](O)[C@@H](O)[C@@H](O[C@H]3[C@H](O)[C@@H](O)C(O)O[C@@H]3CO)O[C@@H]2CO)[C@H](O)[C@@H](O)[C@@H]1N[C@H]1C=C(CO)[C@@H](O)[C@H](O)[C@H]1O` (stereo partly drawn) [ACARBOSE]: the IC50 in data set [1] (read-out: IC50) came to 103 µM. Moreover, the SC50 entry in data set [3] is given as “Not Active”.
Consider `O=C1O[C@H]([C@@H](O)CO)C(O)=C1O` [ASCORBIC ACID], for which the IC50 result in data set [1] and in data set [2] was “Not Active” throughout. In addition, the SC50 in data set [3] came to 2.45 mM.

The record behind these values is ChEMBL document CHEMBL3621193, “New arylalkanones from Horsfieldia macrobotrys, effective antidiabetic agents concomitantly inhibiting α-glucosidase and free radicals” (Bioorg Med Chem Lett, 2015).
